Results reported in patent publication US20250154138A1, “Small Molecule IL-17A Modulators” (BeiGene, Ltd., priority 2022, published 2025).
Where two headings read alike, the source gives them in different places.

Experiments:
[1] = molecular target: human IL-17A / human IL-17RA (Homo sapiens (Human), UniProt Q16552); assay: Human IL-17A biochemical assay (HTRF, blocking of IL-17A binding to IL-17RA); conditions: 0.4 nM IL-17A, 0.3 nM IL-17RA, max compound concentration 10 uM
Summary of the method: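 HTRF competition: 0.4 nM recombinant human IL-17A pre-incubated 3 h at room temperature with compound (top 10 uM, 2.7-fold, 10 points) in HEPES pH 7.5 buffer, then 0.3 nM IL-17RA added for 1 h, then anti-6His-Tb/anti-human IgG-XL665 detection for 1 h.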

[2] = system: IL-17-induced GROα secretion from HT-29 cells; assay: GROα release assay in human colorectal adenocarcinoma epithelial cell (HT-29, ELISA); assay type: cell-based; conditions: Homo sapiens, 10 ng/mL IL-17A, highest concentration 10 μM, read-out: Cellular assay HT29 cell/CXCL1 IC50
Summary of the method: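 HT-29 cells were exposed 48 h at 37°C to IL-17A (final 10 ng/mL) preincubated 15 min with compound (4-fold dilutions, top 10 μM). Secreted GROα was quantified by ELISA against a standard curve, and IC50 obtained by four-parameter fitting.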

Chain of human IL-17A / human IL-17RA (Q16552 24-155): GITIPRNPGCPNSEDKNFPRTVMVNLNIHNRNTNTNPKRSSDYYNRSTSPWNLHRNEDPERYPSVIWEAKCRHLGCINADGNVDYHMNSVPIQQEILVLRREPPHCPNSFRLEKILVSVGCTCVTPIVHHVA

| SMILES | IC50 [1] [nM] | IC50 ([2]; HT-29, 48 h) [nM] | IC50 ([2]; 48 hours) [nM] |
| --- | --- | --- | --- |
| CNC(=O)C1(N2C[C@@H](C(C)C)NC2=O)Cc2ccc(NC(=O)[C@@H](NC(=O)c3nonc3C)C(C3CC3)C3CC3)cc2C1 (stereo partly drawn) [Example 248, N-((2S)-1,1-dicyclopropyl-3-((2-((R)-4-isopropyl-2-oxoimidazolidin-1-yl)-2-(methylcarbamoyl)-2,3-dihydro-1H-inden-5-yl)amino)-3-oxopropan-2-yl)-4-methyl-1,2,5-oxadiazole-3-carboxamide] | 126 | 427 |  |
| Cc1nonc1C(=O)N[C@H](C(=O)Nc1ccc2c(c1)CC(C(=O)Nc1cccc(Cl)c1)(N1CC3(CC3)CNC1=O)C2)C1CCC(F)(F)CC1 (stereo partly drawn) [Example 220, N-((1S)-2-((2-((3-chlorophenyl)carbamoyl)-2-(6-oxo-5,7-diazaspiro[2.5]octan-5-yl)-2,3-dihydro-1H-inden-5-yl)amino)-1-(4,4-difluorocyclohexyl)-2-oxoethyl)-4-methyl-1,2,5-oxadiazole-3-carboxamide] | 169 | 80.6 |  |
| Cc1nonc1C(=O)N[C@H](C(=O)Nc1ccc2c(c1)CC(C(=O)NC1CCOC1)(N1C[C@@H](C(C)C)NC1=O)C2)C(C1CC1)C1CC1 (stereo partly drawn) [Example 280, N-((2S)-1,1-dicyclopropyl-3-((2-((R)-4-isopropyl-2-oxoimidazolidin-1-yl)-2-((tetrahydrofuran-3-yl)carbamoyl)-2,3-dihydro-1H-inden-5-yl)amino)-3-oxopropan-2-yl)-4-methyl-1,2,5-oxadiazole-3-carboxamide] | 17.3 | 48.1 |  |
| Cn1nccc1C(=O)N[C@H](C(=O)Nc1ccc2c(c1)CC(C(=O)NC13CC(C1)C3)(N1CC3(CC3)CNC1=O)C2)C1CCCCC1 (stereo partly drawn) [Example 182, N-((1S)-2-((2-(bicyclo[1.1.1]pentan-1-ylcarbamoyl)-2-(6-oxo-5,7-diazaspiro[2.5]octan-5-yl)-2,3-dihydro-1H-inden-5-yl)amino)-1-cyclohexyl-2-oxoethyl)-1-methyl-1H-pyrazole-5-carboxamide] | 26.9 | 52.9 |  |
| Cc1nonc1C(=O)N[C@H](C(=O)Nc1ccc2c(c1)CC(N1C[C@@H](C(C)C)NC1=O)C2)C(C1CC1)C1CC1 (stereo partly drawn) [Example 231, N-((2S)-1,1-dicyclopropyl-3-((2-((R)-4-isopropyl-2-oxoimidazolidin-1-yl)-2,3-dihydro-1H-inden-5-yl)amino)-3-oxopropan-2-yl)-4-methyl-1,2,5-oxadiazole-3-carboxamide] | 1080 | 1970 |  |
| Cn1nccc1C(=O)N[C@H](C(=O)Nc1ccc2c(c1)CC(C(=O)C(F)(F)F)(N1CC3(CC3)CNC1=O)C2)C1CCCCC1 (stereo partly drawn) [Example 193, N-((1S)-1-cyclohexyl-2-oxo-2-((2-(6-oxo-5,7-diazaspiro[2.5]octan-5-yl)-2-(2,2,2-trifluoroacetyl)-2,3-dihydro-1H-inden-5-yl)amino)ethyl)-1-methyl-1H-pyrazole-5-carboxamide] | 50.7 | 140 |  |
| CNC(=O)C1(N2CC(C)(Cc3ccc(OC)cc3)CNC2=O)Cc2ccc(NC(=O)[C@@H](NC(=O)c3ccnn3C)C3CCCCC3)cc2C1 (stereo partly drawn) [Example 100, N-((1S)-1-cyclohexyl-2-((2-(5-(4-methoxybenzyl)-5-methyl-2-oxotetrahydropyrimidin-1(2H)-yl)-2-(methylcarbamoyl)-2,3-dihydro-1H-inden-5-yl)amino)-2-oxoethyl)-1-methyl-1H-pyrazole-5-carboxamide] | 886 | 2560 |  |
| COCC1(N2CC3(CC3)CNC2=O)Cc2ccc(NC(=O)[C@@H](NC(=O)c3ccnn3C)C3CCCCC3)cc2C1 (stereo partly drawn) [Example 156, N-((1S)-1-cyclohexyl-2-((2-(methoxymethyl)-2-(6-oxo-5,7-diazaspiro[2.5]octan-5-yl)-2,3-dihydro-1H-inden-5-yl)amino)-2-oxoethyl)-1-methyl-1H-pyrazole-5-carboxamide] | 68.3 | 305 |  |
| Cc1nonc1C(=O)N[C@H](C(=O)Nc1ccc2c(c1)CC(c1cn3ccccc3n1)(N1CC3(CC3)CNC1=O)C2)C(C1CC1)C1CC1 (stereo partly drawn) [Example 222, N-((2S)-1,1-dicyclopropyl-3-((2-(imidazo[1,2-a]pyridin-2-yl)-2-(6-oxo-5,7-diazaspiro[2.5]octan-5-yl)-2,3-dihydro-1H-inden-5-yl)amino)-3-oxopropan-2-yl)-4-methyl-1,2,5-oxadiazole-3-carboxamide] | 34.3 | 66.6 |  |
| CNC(=O)C1(N2CC(C)NC2=O)Cc2cc3nc([C@@H](NC(=O)c4nonc4C)C4CCCCC4)[nH]c3cc2C1 (stereo partly drawn) [Example 14, N-((1S)-cyclohexyl(6-(4-methyl-2-oxoimidazolidin-1-yl)-6-(methylcarbamoyl)-1,5,6,7-tetrahydroindeno[5,6-d]imidazol-2-yl)methyl)-4-methyl-1,2,5-oxadiazole-3-carboxamide] | 150 | 300 |  |
| CNC(=O)C1(N2C[C@@H](C(C)C)NC2=O)Cc2ccc(NC(=O)[C@@H](NC(=O)Oc3ccccc3)C3CCCCC3)cc2C1 (stereo partly drawn) [Example 51, phenyl ((1S)-1-cyclohexyl-2-((2-((R)-4-isopropyl-2-oxoimidazolidin-1-yl)-2-(methylcarbamoyl)-2,3-dihydro-1H-inden-5-yl)amino)-2-oxoethyl)carbamate] | 686 |  | 2050 |
| CNC(=O)C1(N2C[C@@H](C(C)C)NC2=O)Cc2ccc(NC(=O)[C@@H](NC(=O)Cc3ccccc3)C3CCCCC3)cc2C1 (stereo partly drawn) [Example 53, 5-((S)-2-cyclohexyl-2-(2-phenylacetamido)acetamido)-2-((R)-4-isopropyl-2-oxoimidazolidin-1-yl)-N-methyl-2,3-dihydro-1H-indene-2-carboxamide] | 223 | 735 |  |
| CNC(=O)C1(N2C[C@@H](C(C)C)NC2=O)Cc2ccc(NC(=O)[C@@H](NC(=O)c3cccc(OC(C)C)c3)C3CCCCC3)cc2C1 (stereo partly drawn) [Example 84, 5-((S)-2-cyclohexyl-2-(3-isopropoxybenzamido)acetamido)-2-((R)-4-isopropyl-2-oxoimidazolidin-1-yl)-N-methyl-2,3-dihydro-1H-indene-2-carboxamide] | 37 | 94.4 |  |
| CCC1(C)CNC(=O)N(C2(C(=O)NC)Cc3ccc(NC(=O)[C@@H](NC(=O)c4ccnn4C)C4CCCCC4)cc3C2)C1 (stereo partly drawn) [Example 105, N-((1S)-1-cyclohexyl-2-((2-(5-ethyl-5-methyl-2-oxotetrahydropyrimidin-1(2H)-yl)-2-(methylcarbamoyl)-2,3-dihydro-1H-inden-5-yl)amino)-2-oxoethyl)-1-methyl-1H-pyrazole-5-carboxamide] | 15 | 55.5 |  |
| CC1CN(C2(CO)Cc3ccc(NC(=O)[C@@H](NC(=O)c4ccnn4C)C4CCCCC4)cc3C2)C(=O)N1 (stereo partly drawn) [Example 22, N-((1S)-1-cyclohexyl-2-((2-(hydroxymethyl)-2-(4-methyl-2-oxoimidazolidin-1-yl)-2,3-dihydro-1H-inden-5-yl)amino)-2-oxoethyl)-1-methyl-1H-pyrazole-5-carboxamide] | 950 | 7120 |  |
| Cn1nccc1C(=O)N[C@H](C(=O)Nc1ccc2c(c1)CC(CNc1ccccc1)(N1CC3(CC3)CNC1=O)C2)C1CCCCC1 (stereo partly drawn) [Example 161, N-((1S)-1-cyclohexyl-2-oxo-2-((2-(6-oxo-5,7-diazaspiro[2.5]octan-5-yl)-2-((phenylamino)methyl)-2,3-dihydro-1H-inden-5-yl)amino)ethyl)-1-methyl-1H-pyrazole-5-carboxamide] | 121 | 146 |  |
